Source: PMC12217109, “Development of novel benzamide class I selective lysine deacetylase inhibitors as potent anticancer agents” (Journal of Enzyme Inhibition and Medicinal Chemistry, 2025)
Like-named read-outs stand apart in the source and are kept apart here.

Key:
HeLa nuclear KDACs = test: Fluor-de-Lys HDAC fluorometric activity assay with HeLa nuclear extract; type: biochemical; details: for IC50: HeLa nuclear extract, up to 20 µM, read-out: HDAC Inhibition IC50; for IC20: concentration inhibiting HDAC activity by 20%, read-out: HDAC Inhibition IC20
Procedure: Total zinc-dependent KDAC (classes I, II and IV) activity was measured using the Fluor-de-Lys^TM HDAC fluorometric activity assay kit (BioMol, Exeter, UK), as per manufacturers protocol. Briefly, HeLa nuclear extract, potential inhibitor (5 nM–20 μM) and assay buffer were incubated in a 96-well fluorometric plate at 37 °C for 15 min. Acetylated substrate (100 μM) was added and the mixture incubated at 37 °C for a further 20 min. The developer was added and the mixture incubated at 37 °C for a further 15 min. Fluorescence was measured using a microplate reader (λex = 360 nm, λem = 460 nm). Percentage KDAC activity and thus KDAC inhibition was determined by quantification of fluorescence obtained in the presence versus absence of the respective inhibitor.

[1] = tested on: A2780 ovarian cancer cell line; test: MTT cellular viability assay, A2780; type: cell-based; details: Homo sapiens
786-0 = test: NCI-60 cytotoxicity screen; type: cell-based; details: Homo sapiens, NCI-60, 48 h, renal
Description: (§1) Compounds 3–7 were submitted to the US National Cancer Institute (NIH, Bethesda, Maryland) for screening against the NCI-60 panel of human cancer cell lines, as per standard protocol.

A549 = test: NCI-60 cytotoxicity screen; type: cell-based; details: Homo sapiens, NCI-60, 48 h, NSCLC
Description: as §1

BT 549 = test: NCI-60 cytotoxicity screen; type: cell-based; details: Homo sapiens, NCI-60, 48 h, breast
Description: as §1

CAKI-1 = test: NCI-60 cytotoxicity screen; type: cell-based; details: Homo sapiens, NCI-60, 48 h, renal
Description: as §1

COLO205 = test: NCI-60 cytotoxicity screen; type: cell-based; details: Homo sapiens, COLO 205; NCI-60, 48 h, colon
Description: as §1

DU-145 = test: NCI-60 cytotoxicity screen; type: cell-based; details: Homo sapiens, NCI-60, 48 h, prostate
Description: as §1

EKVX = test: NCI-60 cytotoxicity screen; type: cell-based; details: Homo sapiens, NCI-60, 48 h, NSCLC
Description: as §1

H23 = test: NCI-60 cytotoxicity screen; type: cell-based; details: Homo sapiens, NCI-60, 48 h, NSCLC
Description: as §1

H460 = test: NCI-60 cytotoxicity screen; type: cell-based; details: Homo sapiens, NCI-60, 48 h, NSCLC
Description: as §1

HCT116 = test: NCI-60 cytotoxicity screen; type: cell-based; details: Homo sapiens, HCT-116; NCI-60, 48 h, colon
Description: as §1

HL-60 = test: NCI-60 cytotoxicity screen; type: cell-based; details: Homo sapiens, NCI-60, 48 h, leukaemia
Description: as §1

HS 578 T = test: NCI-60 cytotoxicity screen; type: cell-based; details: Homo sapiens, NCI-60, 48 h, breast
Description: as §1

KM12 = test: NCI-60 cytotoxicity screen; type: cell-based; details: Homo sapiens, NCI-60, 48 h, colon
Description: as §1

M14 = test: NCI-60 cytotoxicity screen; type: cell-based; details: Homo sapiens, NCI-60, 48 h, melanoma
Description: as §1

MCF-7 = test: NCI-60 cytotoxicity screen; type: cell-based; details: Homo sapiens, MCF7; NCI-60, 48 h, breast
Description: as §1

MDA-MB-435 = test: NCI-60 cytotoxicity screen; type: cell-based; details: Homo sapiens, NCI-60, 48 h, melanoma
Description: as §1

NCI/ADR-RES = test: NCI-60 cytotoxicity screen; type: cell-based; details: Homo sapiens, NCI-60, 48 h, ovarian
Description: as §1

OVCAR-3 = test: NCI-60 cytotoxicity screen; type: cell-based; details: Homo sapiens, NCI-60, 48 h, ovarian
Description: as §1

OVCAR-4 = test: NCI-60 cytotoxicity screen; type: cell-based; details: Homo sapiens, NCI-60, 48 h, ovarian
Description: as §1

OVCAR-8 = test: NCI-60 cytotoxicity screen; type: cell-based; details: Homo sapiens, NCI-60, 48 h, ovarian
Description: as §1

PC-3 = test: NCI-60 cytotoxicity screen; type: cell-based; details: Homo sapiens, NCI-60, 48 h, prostate
Description: as §1

RPMI-8226 = test: NCI-60 cytotoxicity screen; type: cell-based; details: Homo sapiens, NCI-60, 48 h, leukaemia
Description: as §1

RXF 393 = test: NCI-60 cytotoxicity screen; type: cell-based; details: Homo sapiens, NCI-60, 48 h, renal
Description: as §1

SF-268 = test: NCI-60 cytotoxicity screen; type: cell-based; details: Homo sapiens, NCI-60, 48 h, CNS
Description: as §1

SF-295 = test: NCI-60 cytotoxicity screen; type: cell-based; details: Homo sapiens, NCI-60, 48 h, CNS
Description: as §1

SF-539 = test: NCI-60 cytotoxicity screen; type: cell-based; details: Homo sapiens, NCI-60, 48 h, CNS
Description: as §1

SK-MEL-28 = test: NCI-60 cytotoxicity screen; type: cell-based; details: Homo sapiens, NCI-60, 48 h, melanoma
Description: as §1

SK-MEL-2 = test: NCI-60 cytotoxicity screen; type: cell-based; details: Homo sapiens, NCI-60, 48 h, melanoma
Description: as §1

SK-MEL-5 = test: NCI-60 cytotoxicity screen; type: cell-based; details: Homo sapiens, NCI-60, 48 h, melanoma
Description: as §1

SNB-19 = test: NCI-60 cytotoxicity screen; type: cell-based; details: Homo sapiens, NCI-60, 48 h, CNS
Description: as §1

SNB-75 = test: NCI-60 cytotoxicity screen; type: cell-based; details: Homo sapiens, NCI-60, 48 h, CNS
Description: as §1

SW620 = test: NCI-60 cytotoxicity screen; type: cell-based; details: Homo sapiens, SW-620; NCI-60, 48 h, colon
Description: as §1

U251 = test: NCI-60 cytotoxicity screen; type: cell-based; details: Homo sapiens, U-251; NCI-60, 48 h, CNS
Description: as §1

UACC-62 = test: NCI-60 cytotoxicity screen; type: cell-based; details: Homo sapiens, NCI-60, 48 h, melanoma
Description: as §1

H322M = test: NCI-60 cytotoxicity screen; type: cell-based, human; details: for IC50: Homo sapiens, NCI-H322M, NCI-60, 48 h, NSCLC
Description: as §1

TK-10 = test: NCI-60 cytotoxicity screen; type: cell-based, human; details: for IC50: Homo sapiens, TK-10, NCI-60, 48 h, renal
Description: as §1

UACC-257 = test: NCI-60 cytotoxicity screen; type: cell-based, human; details: for IC50: Homo sapiens, UACC-257, NCI-60, 48 h, melanoma
Description: as §1

OVCAR-5 = test: NCI-60 cytotoxicity screen; type: cell-based; details: Homo sapiens, NCI-60, 48 h, ovarian
T-47D = test: NCI-60 cytotoxicity screen; type: cell-based, human; details: for IC50: Homo sapiens, T47D, NCI-60, 48 h, breast
[2] = A2780, MTT, 96 h, read-out: A2780 IC50
[3] = listed as A2780* of Table 4, ovarian, values as in Tables 1 and 2 (MTT), read-out: A2780* cytotoxicity IC50

## C=C(CN1CCN(c2ccccc2C(F)(F)F)CC1)c1ccc(C(=O)Nc2ccccc2N)cc1 [Compound 3, N-(2-aminophenyl)-4–(3-(4–(2-(trifluoromethyl)phenyl)piperazin-1-yl)prop-1-en-2-yl)benzamide]
HeLa nuclear KDACs
  IC50: > 20 µM
  IC20: 1.5 ± 0.8 µM
[1]; [2]
  IC50: 7.5 ± 0.7 µM
[1]; [3]
  IC50: 7.5 µM
786-0
  IC50: 2.36 µM
A549
  IC50: 4.17 µM
BT 549
  IC50: 2.67 µM
CAKI-1
  IC50: 7.96 µM
COLO205
  IC50: 11.5 µM
DU-145
  IC50: 7.52 µM
EKVX
  IC50: 6.7 µM
H23
  IC50: 5.93 µM
H460
  IC50: 5.58 µM
HCT116
  IC50: 3.09 µM
HL-60
  IC50: 0.04 µM
HS 578 T
  IC50: 12.8 µM
KM12
  IC50: 2.04 µM
M14
  IC50: 4.47 µM
MCF-7
  IC50: 4.48 µM
MDA-MB-435
  IC50: 2.72 µM
NCI/ADR-RES
  IC50: 1.87 µM
OVCAR-3
  IC50: 5.92 µM
OVCAR-4
  IC50: 6.53 µM
OVCAR-8
  IC50: 3.84 µM
PC-3
  IC50: 1.91 µM
RPMI-8226
  IC50: 0.16 µM
RXF 393
  IC50: 1.67 µM
SF-268
  IC50: 4.55 µM
SF-295
  IC50: 5.97 µM
SF-539
  IC50: 3.27 µM
SK-MEL-28
  IC50: 10.3 µM
SK-MEL-2
  IC50: 10.3 µM
SK-MEL-5
  IC50: 3.01 µM
SNB-19
  IC50: 24.4 µM
SNB-75
  IC50: 2.82 µM
SW620
  IC50: 3.4 µM
U251
  IC50: 4.63 µM
UACC-62
  IC50: 9.16 µM
H322M
  IC50: 11.4 µM
TK-10
  IC50: 4.63 µM
UACC-257
  IC50: 4.67 µM
OVCAR-5
  IC50: 11.8 µM
T-47D
  IC50: 7.67 µM

## C=C(CN1CCN(c2cccc(C(F)(F)F)c2)CC1)c1ccc(C(=O)Nc2ccccc2N)cc1 [Compound 4, N-(2-aminophenyl)-4–(3-(4–(3-(trifluoromethyl)phenyl)piperazin-1-yl)prop-1-en-2-yl)benzamide]
HeLa nuclear KDACs
  IC50: > 20 µM
  IC20: 5 ± 1.5 µM
[1]; [2]
  IC50: 1.6 ± 0.5 µM
[1]; [3]
  IC50: 1.6 µM
786-0
  IC50: 1.1 µM
A549
  IC50: 1.48 µM
BT 549
  IC50: 0.33 µM
CAKI-1
  IC50: 0.63 µM
COLO205
  IC50: 3.45 µM
DU-145
  IC50: 1.36 µM
EKVX
  IC50: 2.92 µM
H23
  IC50: 3.72 µM
H460
  IC50: 1.56 µM
HCT116
  IC50: 1.14 µM
HL-60
  IC50: 0.12 µM
HS 578 T
  IC50: 0.49 µM
KM12
  IC50: 0.49 µM
M14
  IC50: 1.05 µM
MCF-7
  IC50: 1.24 µM
MDA-MB-435
  IC50: 0.14 µM
NCI/ADR-RES
  IC50: 0.11 µM
OVCAR-3
  IC50: 0.55 µM
OVCAR-4
  IC50: 3.94 µM
OVCAR-8
  IC50: 1.4 µM
PC-3
  IC50: 0.62 µM
RPMI-8226
  IC50: 0.32 µM
RXF 393
  IC50: 1.62 µM
SF-268
  IC50: 1.43 µM
SF-295
  IC50: 0.54 µM
SF-539
  IC50: 0.54 µM
SK-MEL-28
  IC50: 3.4 µM
SK-MEL-2
  IC50: 3.44 µM
SK-MEL-5
  IC50: 0.57 µM
SNB-19
  IC50: 4.1 µM
SNB-75
  IC50: 0.01 µM
SW620
  IC50: 1.28 µM
U251
  IC50: 1.17 µM
UACC-62
  IC50: 0.41 µM
H322M; H322M NSCLC
  fold improvement in cytotoxicity sensitivity compared to 7, H322M: approximately 100 fold
H322M
  IC50: 0.94 µM
TK-10
  IC50: 0.81 µM
TK-10; TK-10 renal
  fold improvement in cytotoxicity sensitivity compared to 7, TK-10: ~20 fold
UACC-257
  IC50: 0.76 µM
UACC-257; UACC-257 melanoma
  fold improvement in cytotoxicity sensitivity compared to 7, UACC-257: ~35 fold
OVCAR-5
  IC50: 6.62 µM
T-47D
  IC50: 13.2 µM
T-47D; T-47D breast cell line
  fold less sensitive than to 1, T-47D: > 28 fold
